Data taken from PubChem BioAssay AID248 (DTP/NCI, 2004).
“And” between values parts separate entries of the source, which are not always exact repeats. Equal entries are not always repeated. Inconclusive results and toxic doses are left out.

Test system: L1210 leukemia ip in BDF1 mice, survival T/C
Assay: NCI In Vivo Anticancer Drug Screen. Data for tumor model L1210 Leukemia (intraperitoneal) in B6D2F1 (BDF1) mice
Conditions: endpoint: mean survival time, higher = longer survival
In short: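 Value reflects the ratio of survival in compound-treated mice to survival in vehicle-treated controls, with both groups carrying the same transplanted tumor.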

[1] = dose: 100.0 mg/kg/injection, schedule: Q01DX009 (ip), vehicle: Klucel (hydroxypropylcellulose) (HPC)
[2] = dose: 200.0 mg/kg/injection, schedule: Q01DX009 (ip), vehicle: Klucel (hydroxypropylcellulose) (HPC)
[3] = dose: 75.0 mg/kg/injection, schedule: Q01DX001 (ip), vehicle: saline
[4] = dose: 150.0 mg/kg/injection, schedule: Q01DX001 (ip), vehicle: saline
[5] = dose: 300.0 mg/kg/injection, schedule: Q01DX001 (ip), vehicle: saline
[6] = dose: 100.0 mg/kg/injection, schedule: Q01DX001 (ip), vehicle: Klucel (hydroxypropylcellulose) (HPC)
[7] = dose: 200.0 mg/kg/injection, schedule: Q01DX001 (ip), vehicle: Klucel (hydroxypropylcellulose) (HPC)
[8] = dose: 100.0 mg/kg/injection, schedule: Q04DX002 (ip), vehicle: Klucel (hydroxypropylcellulose) (HPC)

Cc1nc(N)[nH]c(=O)c1CCCCc1ccccc1
T/C (dose: 50.0 mg/kg/injection, schedule: Q01DX009 (ip), vehicle: Klucel (hydroxypropylcellulose) (HPC)): 98 % of control | T/C [1]: 102 % of control | T/C [2]: 95 % of control

NC(N)=Nc1ccc(-c2ccc(N=C(N)N)cc2)cc1
T/C (dose: 12.5 mg/kg/injection, schedule: Q01DX Z (oral), vehicle: saline): 97 % of control | T/C (dose: 25.0 mg/kg/injection, schedule: Q01DX Z (oral), vehicle: saline): 106 % of control | T/C (dose: 50.0 mg/kg/injection, schedule: Q01DX Z (oral), vehicle: saline): 101 % of control | T/C (dose: 100.0 mg/kg/injection, schedule: Q01DX Z (oral), vehicle: saline): 105 % of control | T/C (dose: 200.0 mg/kg/injection, schedule: Q01DX Z (oral), vehicle: saline): 100 % of control

CC[n+]1csc2ccccc21
T/C [3]: 102 % of control | T/C [4]: 105 % of control | T/C [5]: 97 % of control

COc1c(OC)c(C(C)C)c2c(OC(C)=O)c(C)c(-c3c(C)c(OC(C)=O)c4c(C(C)C)c(OC)c(OC)c5c4c3OC5=O)c3c2c1C(=O)O3
T/C (dose: 50.0 mg/kg/injection, schedule: Q01DX001 (ip), vehicle: Klucel (hydroxypropylcellulose) (HPC)): 100 % of control | T/C [6]: 93 % of control | T/C [7]: 98 % of control

CCCCCCCCCCCCCCCCCCN=C(Cl)Cl
T/C [6]: 88 % of control | T/C [7]: 96 % of control | T/C (dose: 400.0 mg/kg/injection, schedule: Q01DX001 (ip), vehicle: Klucel (hydroxypropylcellulose) (HPC)): 98 % of control

O=C(O)COc1nc(Cl)c(Cl)cc1Cl
T/C [8]: 107 % of control | T/C (dose: 200.0 mg/kg/injection, schedule: Q04DX002 (ip), vehicle: Klucel (hydroxypropylcellulose) (HPC)): 104 % of control

Cc1c2oc3c(C)c([N+](=O)[O-])cc(C(=O)NC4C(=O)NC(C(C)C)C(=O)N5CCCC5C(=O)N(C)CC(=O)N(C)C(C(C)C)C(=O)OC4C)c3nc-2c(C(=O)NC2C(=O)NC(C(C)C)C(=O)N3CCCC3C(=O)N(C)CC(=O)N(C)C(C(C)C)C(=O)OC2C)c(N)c1=O (stereo not drawn)
T/C (dose: 75.0 micrograms/kg/injection, schedule: Q01DX009 (ip), vehicle: saline + alcohol): 110 % of control | T/C (dose: 100.0 micrograms/kg/injection, schedule: Q01DX009 (ip), vehicle: saline + alcohol): 116 % of control | T/C (dose: 150.0 micrograms/kg/injection, schedule: Q01DX009 (ip), vehicle: saline + alcohol): 111 % of control | T/C (dose: 300.0 micrograms/kg/injection, schedule: Q01DX009 (ip), vehicle: saline + alcohol): 108 % of control | T/C (dose: 400.0 micrograms/kg/injection, schedule: Q01DX009 (ip), vehicle: saline + alcohol): 96 % of control | T/C (dose: 400.0 micrograms/kg/injection, schedule: Q04DX003 (ip), vehicle: saline + alcohol): 124 % of control | T/C (dose: 600.0 micrograms/kg/injection, schedule: Q04DX003 (ip), vehicle: saline + alcohol): 119 % of control | T/C (dose: 800.0 micrograms/kg/injection, schedule: Q04DX003 (ip), vehicle: saline + alcohol): 106 % of control | T/C (dose: 1200.0 micrograms/kg/injection, schedule: Q04DX003 (ip), vehicle: saline + alcohol): 111 % of control

O=C(O)c1c(F)c(F)c(Br)c(F)c1F
T/C (dose: 25.6 mg/kg/injection, schedule: Q04DX002 (ip), vehicle: saline with Tween-80): 168 % of control | T/C (dose: 64.0 mg/kg/injection, schedule: Q04DX002 (ip), vehicle: saline with Tween-80): 91 % of control | T/C (dose: 160.0 mg/kg/injection, schedule: Q04DX002 (ip), vehicle: saline with Tween-80): 94 % of control | T/C (dose: 400.0 mg/kg/injection, schedule: Q04DX002 (ip), vehicle: saline with Tween-80): 94 % of control

C[N+](C)(C)C1CCCCCCC1
T/C [3]: 96 % of control | T/C [4]: 108 % of control

O=C1C=C(c2ccccc2)OC(c2ccccc2)C1 (stereo not drawn)
T/C (dose: 75.0 mg/kg/injection, schedule: Q01DX009 (ip), vehicle: Klucel (hydroxypropylcellulose) (HPC)): 97 % of control | T/C (dose: 150.0 mg/kg/injection, schedule: Q01DX009 (ip), vehicle: Klucel (hydroxypropylcellulose) (HPC)): 99 % of control | T/C (dose: 300.0 mg/kg/injection, schedule: Q01DX009 (ip), vehicle: Klucel (hydroxypropylcellulose) (HPC)): 99 % of control

CCOc1ccccc1NC(=O)CC(C)=O
T/C [1]: 89 % of control | T/C [2]: 88 % of control | T/C (dose: 400.0 mg/kg/injection, schedule: Q01DX009 (ip), vehicle: Klucel (hydroxypropylcellulose) (HPC)): 93 % of control

CCN(CC)CCOCCOC(=O)C(CC)(CC)c1cccc2ccccc12
T/C (dose: 25.0 mg/kg/injection, schedule: Q04DX002 (ip), vehicle: Klucel (hydroxypropylcellulose) (HPC)): 93 % of control | T/C (dose: 50.0 mg/kg/injection, schedule: Q04DX002 (ip), vehicle: Klucel (hydroxypropylcellulose) (HPC)): 97 % of control | T/C [8]: 93 % of control

O=C(Cn1ccc(=O)[nH]c1=O)N1CCOCC1
T/C (dose: 100.0 mg/kg/injection, schedule: Q01DX009 (ip), vehicle: water): 91 % of control | T/C (dose: 100.0 mg/kg/injection, schedule: Q04DX003 (ip), vehicle: water): 100 % of control | T/C (dose: 200.0 mg/kg/injection, schedule: Q01DX009 (ip), vehicle: water): 90 % of control | T/C (dose: 200.0 mg/kg/injection, schedule: Q04DX003 (ip), vehicle: water): 92 % of control | T/C (dose: 400.0 mg/kg/injection, schedule: Q01DX009 (ip), vehicle: water): 104 % of control | T/C (dose: 400.0 mg/kg/injection, schedule: Q04DX003 (ip), vehicle: water): 94 % of control

BrC12CCC(CC1)C1CCC2CC1
T/C (dose: 100.0 mg/kg/injection, schedule: Q01DX009 (ip), vehicle: saline): 90 % of control | T/C (dose: 100.0 mg/kg/injection, schedule: Q04DX003 (ip), vehicle: saline): 96 % of control | T/C (dose: 200.0 mg/kg/injection, schedule: Q01DX009 (ip), vehicle: saline): 87 % of control | T/C (dose: 200.0 mg/kg/injection, schedule: Q04DX003 (ip), vehicle: saline): 97 % of control | T/C (dose: 400.0 mg/kg/injection, schedule: Q01DX009 (ip), vehicle: saline): 88 % of control | T/C (dose: 400.0 mg/kg/injection, schedule: Q04DX003 (ip), vehicle: saline): 98 % of control

BrCC(Br)CBr
T/C (dose: 50.0 mg/kg/injection, schedule: Q01DX009 (ip), vehicle: saline with Tween-80): 94 % of control | T/C (dose: 100.0 mg/kg/injection, schedule: Q01DX009 (ip), vehicle: saline with Tween-80): 91 % of control | T/C (dose: 100.0 mg/kg/injection, schedule: Q04DX003 (ip), vehicle: saline with Tween-80): 94 % of control | T/C (dose: 200.0 mg/kg/injection, schedule: Q01DX009 (ip), vehicle: saline with Tween-80): 98 % of control | T/C (dose: 200.0 mg/kg/injection, schedule: Q04DX003 (ip), vehicle: saline with Tween-80): 102 % of control

Cc1cc(=O)[nH]c(O)c1C(=O)CC(=O)c1ccccc1
T/C (dose: 100.0 mg/kg/injection, schedule: Q01DX001 (ip), vehicle: saline): 97 % of control | T/C (dose: 200.0 mg/kg/injection, schedule: Q01DX001 (ip), vehicle: saline): 100 % of control

COC(=O)CCCN1C(=O)c2ccccc2C1=O
T/C (dose: 100.0 mg/kg/injection, schedule: Q04DX002 (ip), vehicle: carboxymethylcellulose (CMC)): 102 % of control and 87 % of control | T/C (dose: 100.0 mg/kg/injection, schedule: Q04DX003 (ip), vehicle: carboxymethylcellulose (CMC)): 94 % of control | T/C (dose: 200.0 mg/kg/injection, schedule: Q04DX002 (ip), vehicle: carboxymethylcellulose (CMC)): 97 % of control and 91 % of control | T/C (dose: 200.0 mg/kg/injection, schedule: Q04DX003 (ip), vehicle: carboxymethylcellulose (CMC)): 92 % of control | T/C (dose: 400.0 mg/kg/injection, schedule: Q04DX002 (ip), vehicle: carboxymethylcellulose (CMC)): 93 % of control and 90 % of control | T/C (dose: 400.0 mg/kg/injection, schedule: Q04DX003 (ip), vehicle: carboxymethylcellulose (CMC)): 99 % of control

CC(C)(C)NNC(C)(C)C
T/C (dose: 9.38 mg/kg/injection, schedule: Q01DX001 (ip), vehicle: other): 102 % of control | T/C (dose: 18.75 mg/kg/injection, schedule: Q01DX001 (ip), vehicle: other): 96 % of control | T/C (dose: 37.5 mg/kg/injection, schedule: Q01DX001 (ip), vehicle: other): 96 % of control

NC(N)=NCCCS
T/C [3]: 104 % of control | T/C [4]: 104 % of control | T/C [5]: 104 % of control

Cc1nc2c(c(=O)[nH]1)OCN(Cc1ccccc1)C2
T/C (dose: 50.0 mg/kg/injection, schedule: Q01DX001 (ip), vehicle: carboxymethylcellulose (CMC)): 96 % of control | T/C (dose: 100.0 mg/kg/injection, schedule: Q01DX001 (ip), vehicle: carboxymethylcellulose (CMC)): 98 % of control | T/C (dose: 200.0 mg/kg/injection, schedule: Q01DX001 (ip), vehicle: carboxymethylcellulose (CMC)): 98 % of control | T/C (dose: 400.0 mg/kg/injection, schedule: Q01DX001 (ip), vehicle: carboxymethylcellulose (CMC)): 98 % of control
